Laboratory results reported in paper PMC7235042, “Venturicidin A, A Membrane-active Natural Product Inhibitor of ATP synthase Potentiates Aminoglycoside Antibiotics” (Scientific Reports, 2020).

Target: T1, AAC(6′)-Ie-APH(2′′)-Ia (Staphylococcus aureus, UniProt P0A0C1)
T1 construct: gene aacA-aphD; purified bifunctional enzyme (AAC and APH domains)
Experiment: absorbance at […] nm, DTNB detection of released CoA-SH
Assay type: biochemical
Details: AAC activity; co-substrate gentamicin 112 µg/mL

T1 sequence (P0A0C1 whole entry, the tested form may be a part): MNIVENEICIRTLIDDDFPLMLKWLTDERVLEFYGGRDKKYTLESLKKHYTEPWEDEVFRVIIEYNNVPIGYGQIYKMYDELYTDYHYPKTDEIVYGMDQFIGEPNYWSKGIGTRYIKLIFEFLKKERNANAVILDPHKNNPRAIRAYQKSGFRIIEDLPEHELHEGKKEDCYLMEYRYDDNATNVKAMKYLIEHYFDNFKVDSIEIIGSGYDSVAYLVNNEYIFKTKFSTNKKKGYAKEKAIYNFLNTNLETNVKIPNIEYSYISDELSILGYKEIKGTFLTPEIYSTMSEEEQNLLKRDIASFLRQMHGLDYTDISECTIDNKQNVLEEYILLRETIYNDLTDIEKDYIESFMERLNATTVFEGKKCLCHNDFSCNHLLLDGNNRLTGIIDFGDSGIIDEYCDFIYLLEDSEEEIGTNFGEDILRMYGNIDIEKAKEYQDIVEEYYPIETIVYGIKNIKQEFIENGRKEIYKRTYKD

CC(=O)SCCNC(=O)CCNC(=O)[C@H](O)C(C)(C)COP(=O)(O)OP(=O)(O)OC[C@H]1O[C@@H](n2cnc3c(N)ncnc32)[C@H](O)[C@@H]1OP(=O)(O)O [acetyl CoA]
absorbance at 412 nm, DTNB detection of released CoA-SH: CoA–SH that is derived from acetyl CoA after antibiotic acetylation
